In PubChem BioAssay AID330 (DTP/NCI, 2004) one finds T/C data, which are given here for 21 compounds.

The assay relates to P388 leukemia ip, CD2F1 mice, survival T/C. Description: NCI In Vivo Anticancer Drug Screen. Data for tumor model P388 Leukemia (intraperitoneal) in CD2F1 (CDF1) mice. To be noted: endpoint: median survival time, higher = longer survival. In outline: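 Mice carrying the transplanted tumor received test compound or vehicle. Survival was recorded in each group, and the value is the treated-group measurement divided by that of the vehicle-treated control group.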

The mark [1] stands for this setting: dose: 12.5 mg/kg/injection, schedule: Q01DX009 (ip), vehicle: saline.
[2] abbreviates: dose: 25.0 mg/kg/injection, schedule: Q01DX009 (ip), vehicle: saline.
[3] abbreviates: dose: 50.0 mg/kg/injection, schedule: Q01DX005 (ip), vehicle: saline with Tween-80.
[4] abbreviates: dose: 100.0 mg/kg/injection, schedule: Q01DX005 (ip), vehicle: saline with Tween-80.
[5] abbreviates: dose: 200.0 mg/kg/injection, schedule: Q01DX005 (ip), vehicle: saline with Tween-80.
Setting [6] is: dose: 100.0 mg/kg/injection, schedule: Q01DX001 (ip), vehicle: saline with Tween-80.
[7] abbreviates: dose: 12.5 mg/kg/injection, schedule: Q01DX009 (ip), vehicle: saline with Tween-80.
Setting [8] is: dose: 25.0 mg/kg/injection, schedule: Q01DX009 (ip), vehicle: saline with Tween-80.
Where [9] appears, read: dose: 50.0 mg/kg/injection, schedule: Q01DX005 (ip), vehicle: Klucel (hydroxypropylcellulose) (HPC).
[10] abbreviates: dose: 100.0 mg/kg/injection, schedule: Q01DX005 (ip), vehicle: Klucel (hydroxypropylcellulose) (HPC).
[11] abbreviates: dose: 200.0 mg/kg/injection, schedule: Q01DX005 (ip), vehicle: Klucel (hydroxypropylcellulose) (HPC).
The mark [12] stands for this setting: dose: 50.0 mg/kg/injection, schedule: Q01DX009 (ip), vehicle: saline with Tween-80.
Where [13] appears, read: dose: 100.0 mg/kg/injection, schedule: Q01DX009 (ip), vehicle: saline.
Where [14] appears, read: dose: 200.0 mg/kg/injection, schedule: Q01DX009 (ip), vehicle: saline.
The mark [15] stands for this setting: dose: 50.0 mg/kg/injection, schedule: Q01DX009 (ip), vehicle: saline.
[16] abbreviates: dose: 50.0 mg/kg/injection, schedule: Q01DX009 (ip), vehicle: Klucel (hydroxypropylcellulose) (HPC).
The mark [17] stands for this setting: dose: 100.0 mg/kg/injection, schedule: Q01DX009 (ip), vehicle: Klucel (hydroxypropylcellulose) (HPC).
Where [18] appears, read: dose: 200.0 mg/kg/injection, schedule: Q01DX009 (ip), vehicle: Klucel (hydroxypropylcellulose) (HPC).

“And” between values parts separate entries of the source, which are not always exact repeats. Identical values can stand only once. Toxic doses and inconclusive results are not listed.

Take `O=NN(CCCl)C(=O)Nc1ccccc1`: the T/C is 200 % of control (dose: 0.5 mg/kg/injection, schedule: Q04DX003 (ip), vehicle: saline with Tween-80); 150 % of control (dose: 1.25 mg/kg/injection, schedule: Q04DX003 (ip), vehicle: saline with Tween-80); 179 % of control (dose: 2.5 mg/kg/injection, schedule: Q04DX003 (ip), vehicle: saline with Tween-80); 233 % of control (dose: 5.0 mg/kg/injection, schedule: Q04DX003 (ip), vehicle: saline with Tween-80); 227 % of control (dose: 6.25 mg/kg/injection, schedule: Q01DX009 (ip), vehicle: saline); 118 % of control under setting [1]. Also, the T/C by setting is: (dose: 12.5 mg/kg/injection, schedule: Q04DX003 (ip), vehicle: saline with Tween-80) 250 % of control; under setting [2], 95 % of control; (dose: 25.0 mg/kg/injection, schedule: Q04DX003 (ip), vehicle: saline with Tween-80) 91 % of control.

On to `COc1ccc(Nc2c3sc4cc(OC)ccc4nc-3c3ccccc3c2=O)cc1`, for which the T/C is 94 % of control under setting [3], 92 % of control under setting [4] and 94 % of control under setting [5].

Take `CN(C)NC(=O)[S-].CN(C)NC(=O)[S-].[Ni]`: the T/C is 103 % of control (dose: 12.5 mg/kg/injection, schedule: Q01DX001 (ip), vehicle: saline with Tween-80); 111 % of control (dose: 25.0 mg/kg/injection, schedule: Q01DX001 (ip), vehicle: saline with Tween-80); 106 % of control and 96 % of control (dose: 50.0 mg/kg/injection, schedule: Q01DX001 (ip), vehicle: saline with Tween-80); 109 % of control under setting [6].

Consider `COc1ccc([I+]c2cccc(Cl)c2)cc1Cl`, for which the T/C was 106 % of control (dose: 0.09 mg/kg/injection, schedule: Q01DX009 (ip), vehicle: saline with Tween-80); 112 % of control (dose: 0.18 mg/kg/injection, schedule: Q01DX009 (ip), vehicle: saline with Tween-80); 102 % of control (dose: 0.37 mg/kg/injection, schedule: Q01DX009 (ip), vehicle: saline with Tween-80); 122 % of control (dose: 0.75 mg/kg/injection, schedule: Q01DX009 (ip), vehicle: saline with Tween-80); 150 % of control and 159 % of control under setting [7]; 106 % of control and 112 % of control under setting [8].

Take `CCOC(=O)CC1=CS/C(=C(/C#N)C(=O)OCC)S1`: the T/C is, setting by setting: under setting [3], 93 % of control; under setting [4], 98 % of control; under setting [5], 94 % of control.

For the compound `CCN(CC)c1ccc(C=C2C(=O)NC(=S)NC2=O)cc1`, the T/C reads like this: (dose: 25.0 mg/kg/injection, schedule: Q01DX005 (ip), vehicle: Klucel (hydroxypropylcellulose) (HPC)) 101 % of control; under setting [9], 100 % of control; under setting [10], 101 % of control; under setting [11], 100 % of control.

With `C/C(CCCC(C)(C)C(=O)O)=N/Nc1ccc([N+](=O)[O-])cc1[N+](=O)[O-]`, the T/C was 104 % of control under setting [7]; 100 % of control under setting [8]; 92 % of control and 95 % of control under setting [12].

Take `Cc1cccc(NC(N)=S)n1`: the T/C is 108 % of control (dose: 12.5 mg/kg/injection, schedule: Q01DX009 (ip), vehicle: other); 98 % of control (dose: 25.0 mg/kg/injection, schedule: Q01DX009 (ip), vehicle: other); 115 % of control (dose: 50.0 mg/kg/injection, schedule: Q01DX009 (ip), vehicle: other); 119 % of control (dose: 100.0 mg/kg/injection, schedule: Q01DX009 (ip), vehicle: other).

For `CC(=O)NC1C(=O)CC(c2ccccc2)N(C)C1c1ccccc1` (stereo not drawn), the T/C is 101 % of control under setting [9], 97 % of control under setting [10] and 90 % of control under setting [11].

As to `CCCCCCCCCC(=O)c1ccc(O)c(O)c1O`, the T/C under setting [13] is 100 % of control and the T/C under setting [14] is 105 % of control.

Consider `CC1(C)COC(Cc2ccccc2)=N1`, for which the T/C was 100 % of control under setting [12]; 100 % of control (dose: 50.0 mg/kg/injection, schedule: Q04DX003 (ip), vehicle: saline with Tween-80); 104 % of control (dose: 100.0 mg/kg/injection, schedule: Q01DX009 (ip), vehicle: saline with Tween-80); 95 % of control (dose: 100.0 mg/kg/injection, schedule: Q04DX003 (ip), vehicle: saline with Tween-80); 100 % of control (dose: 200.0 mg/kg/injection, schedule: Q01DX009 (ip), vehicle: saline with Tween-80); 100 % of control (dose: 200.0 mg/kg/injection, schedule: Q04DX003 (ip), vehicle: saline with Tween-80).

Consider `O=C1OC(/C=C/c2ccccc2)=NC/1=C\c1ccccc1`, for which the T/C by setting is: (dose: 60.0 mg/kg/injection, schedule: Q01DX005 (ip), vehicle: Klucel + Tween-80) 103 % of control; (dose: 120.0 mg/kg/injection, schedule: Q01DX005 (ip), vehicle: Klucel + Tween-80) 99 % of control; (dose: 240.0 mg/kg/injection, schedule: Q01DX005 (ip), vehicle: Klucel + Tween-80) 97 % of control.

As for `COc1ccc2[nH]c(=O)oc(=O)c2c1`, the T/C under setting [2] was 100 % of control, the T/C under setting [15] is 96 % of control, the T/C under setting [13] is 107 % of control and the T/C under setting [14] is 107 % of control.

Regarding `CC(C)CC(=O)CC(=O)C(C)(C)C.CC(C)CC(=O)CC(=O)C(C)(C)C.CC(C)CC(=O)CC(=O)C(C)(C)C.[Cr]`, the T/C (dose: 50.0 mg/kg/injection, schedule: Q01DX009 (ip), vehicle: distilled water + alcohol) was 97 % of control; the T/C (dose: 100.0 mg/kg/injection, schedule: Q01DX009 (ip), vehicle: distilled water + alcohol) was 107 % of control; the T/C (dose: 200.0 mg/kg/injection, schedule: Q01DX009 (ip), vehicle: distilled water + alcohol) was 103 % of control.

`O=C(C(O)C(O)C(O)CO)n1cnc2c1ncn1c(=O)cc(CI)nc21` (stereo not drawn): the T/C was 105 % of control under setting [6]; 97 % of control (dose: 200.0 mg/kg/injection, schedule: Q01DX001 (ip), vehicle: saline with Tween-80); 111 % of control (dose: 400.0 mg/kg/injection, schedule: Q01DX001 (ip), vehicle: saline with Tween-80).

On to `CC1Cn2c(nc3sc4c(c3c2=O)CCCC4)S1` (stereo not drawn), for which the T/C was 104 % of control under setting [16], 97 % of control under setting [17] and 106 % of control under setting [18].

As to `CN1CCC(=C2c3ccccc3Oc3ncccc32)CC1`, the T/C by setting is: under setting [1], 102 % of control; under setting [2], 111 % of control; under setting [12], 102 % of control; under setting [15], 99 % of control.

For the compound `CNc1nc2c(N)ncnc2n1C1OC(CO)C(O)C1O` (stereo not drawn), the T/C was 94 % of control (dose: 6.25 mg/kg/injection, schedule: Q01DX009 (ip), vehicle: suspension in saline) and 112 % of control (dose: 12.5 mg/kg/injection, schedule: Q01DX009 (ip), vehicle: suspension in saline).

As for `O=C1c2ccccc2S(=O)(=O)N1CCN(CCN1C(=O)c2ccccc2S1(=O)=O)c1ccccc1`, the T/C reads like this: under setting [16], 92 % of control; under setting [17], 100 % of control; under setting [18], 100 % of control.

Turning to `O=S(=O)(C(c1ccc(Cl)cc1)c1ccc(Cl)cc1)C(Cl)(Cl)Cl`, the T/C reads like this: (dose: 25.0 mg/kg/injection, schedule: Q01DX001 (ip), vehicle: Klucel (hydroxypropylcellulose) (HPC)) 108 % of control; (dose: 50.0 mg/kg/injection, schedule: Q01DX001 (ip), vehicle: Klucel (hydroxypropylcellulose) (HPC)) 102 % of control; (dose: 100.0 mg/kg/injection, schedule: Q01DX001 (ip), vehicle: Klucel (hydroxypropylcellulose) (HPC)) 102 % of control.

Take `C=C(C)[C@@H]1CC=C(C)[C@H](O)C1`: the T/C under setting [15] is 111 % of control, the T/C under setting [13] is 102 % of control and the T/C under setting [14] was 100 % of control.
